Reference: article PMC6747315, “Formation of α-Farnesene in Tea (Camellia sinensis) Leaves Induced by Herbivore-Derived Wounding and Its Effect on Neighboring Tea Plants” (International Journal of Molecular Sciences, 2019)

Target: T1, CsAFS (α-farnesene synthase) (Camellia sinensis, UniProt A0A3G3IRF8)
T1 construct: full-length ORF cloned in pET32a (EcoRV/SalI); cloning primers encode N-terminus MDCSKGML and C-terminus LIEPLKIN
T1 sequence (A0A3G3IRF8 1-560): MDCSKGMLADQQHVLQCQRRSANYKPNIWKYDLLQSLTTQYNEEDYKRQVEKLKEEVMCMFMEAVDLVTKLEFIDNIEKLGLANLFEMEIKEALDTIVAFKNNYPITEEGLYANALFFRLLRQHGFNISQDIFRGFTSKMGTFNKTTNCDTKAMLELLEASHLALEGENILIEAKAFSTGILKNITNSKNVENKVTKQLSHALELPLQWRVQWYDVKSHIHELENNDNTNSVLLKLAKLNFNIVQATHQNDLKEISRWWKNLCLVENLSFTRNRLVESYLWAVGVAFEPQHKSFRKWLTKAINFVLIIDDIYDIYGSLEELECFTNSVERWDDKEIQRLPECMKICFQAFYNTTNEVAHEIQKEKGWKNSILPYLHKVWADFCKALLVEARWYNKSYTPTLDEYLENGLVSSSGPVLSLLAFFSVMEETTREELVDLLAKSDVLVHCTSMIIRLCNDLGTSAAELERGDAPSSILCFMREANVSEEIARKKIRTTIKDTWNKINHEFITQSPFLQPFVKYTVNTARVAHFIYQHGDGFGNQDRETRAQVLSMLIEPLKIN
Assay: SPME GC-MS product analysis
Format: biochemical
Settings: 15 µg protein in 1 mL, 10 mM MgCl2, 1 mM MnCl2, 500 mM KCl, pH 7.0, 30 °C, 1 h

| SMILES | SPME GC-MS product analysis (product β-ocimene) | SPME GC-MS product analysis (product α-farnesene) |
| --- | --- | --- |
| CC(C)=CCC/C(C)=C/COP(=O)(O)OP(=O)(O)O [geranyl diphosphate] | with geranyl diphosphate (GPP) as substrate, the CsAFS enzyme produced only β-ocimene |  |
| CC(C)=CCC/C(C)=C/CC/C(C)=C/COP(=O)(O)OP(=O)(O)O [farnesyl diphosphate] |  | recombinant protein CsAFS converted substrate farnesyl diphosphate (FPP) into α-farnesene as the final product |
